# Assays:
# [1] = system: micro-capillary blood flow to skin; assay: Laser Doppler study, closed Hilltop chamber on forearm, three human female subjects (Example 6); format: in vivo; details: 1/10% in alcohol applied to the skin
# Description: The formulation used in these studies contained nitric oxide dispersed in a lipid matrix. […] Nitric oxide is a very rapid acting molecule, and these studies used a system that employed laser Doppler with a covered chamber. The formulation was placed into the chamber and then attached to the skin by an adhesive layer on the covering. This provided a stable measuring device as determined by multiple normal evaluations of the capillary blood flow without treatment of nitric oxide.
# A known positive control, methyl nicotinate, was applied to the skin at a concentration of 1/10% in alcohol. […] The vascular dynamics are such that when the blood vessels dilate physical parameters follow Bernoulli's law. […] The laser Doppler device accurately measured these parameters.
# In these studies, the participants were healthy females aged 30 to 55 years. They were in good health as determined by the medical history and were not taking any prescription medications. All study participants read and signed the informed consent statement prior to any study procedures being performed. […]
# A Moor Instruments DRT4 Laser Doppler Blood Flow Monitor (Devon, England) was used in these studies. The laser Doppler technique measured blood flow in the microcapillaries of the skin that are close to the skin surface and the blood flow in underlying arterioles and venules that help to regulate skin temperature. […]
# capillary circulation = assay: Laser Doppler study of creams in five human subjects (second Example 7); format: in vivo; details: positive control formulation containing 0.1% methyl nicotinate
# Description: This example illustrates delivery of nitric oxide formulations to five human subjects, using procedures and formulations similar to those discussed in Example 6. Each person served as their own control for the testing. A Moor Instruments Laser Doppler was used to determine circulation. […] The formulations used produce positive, almost immediate results when applied to the skin which, in these studies, was manifested by vasodilatation of the cutaneous vascular system.
# For each subject, the following creams were applied: a negative control formulation (containing no NO), 0.010 gram of a 10,000 ppm NO formulation, 0.020 gram of a 10,000 ppm NO formulation, and a positive control formulation containing 0.1% methyl nicotinate. The formulations were prepared using procedures similar to those discussed in Example 1.
smiles,measurement,setting,value
COC(=O)c1cccnc1 [methyl nicotinate],vasodilator response (positive control),[1],rapid response typical of the vasodilator
same,vasodilatation,capillary circulation,vasodilatation was observed

# Source: US9950004B2, “Treatment and prevention of learning and memory disorders” (priority 2012, dated 2018)
